Data taken from patent publication US20240116985A1, “STAPLED PEPTIDES AND METHODS THEREOF” (priority 2020, published 2024).
Values after ≈ are worked out from the molar mass of the structure shown.

Assay: Solubility in PBS
Assay type: physicochemical
Conditions: for solubility at 15 min: Solubility (uM)
Description: After ultracentrifugation of the PBS solution, the supernatant was analyzed by HPLC and compared to an HPLC injection 50 μM peptide DMSO solution. Solubility was determined by: [(Area of PBS peak)/(Area of DMSO peak)]*50 uM.

Row | SMILES | Solubility [µM] | solubility at 15 min [µM]
1 | CC(=O)N1CCC[C@]12CC=CCCCC1(CCCC=CCCCOC(=O)N3CC[C@@](C(=O)N[C@@H](Cc4ccccc4Br)C(=O)N[C@@H](Cc4csc5ccccc45)C(=O)N[C@@H](CCC(N)=O)C(N)=O)(C3)NC(=O)[C@H](Cc3ccccc3)NC(=O)[C@H](Cc3ccccc3)NC(=O)[C@H](C)NC(=O)[C@H](C)NC(=O)[C@H](CC(=O)O)NC(=O)[C@H](CC(=O)O)NC1=O)NC(=O)[C@H](CC(C)(C)C)NC(=O)[C@H](CC(=O)O)NC2=O (stereo partly drawn) [I-1325, PL3-Asp-Npg-B5-Asp-Asp-Ala-Ala-Phe-Phe-PyrS2-2BrF-BztA-Gln-NH2] | – | 12 (≈ 24.3 µg/mL)
2 | COc1ccccc1C[C@H](NC(=O)[C@]12CCN(C1)C(=O)OCCCC=CCCCC1(CCCC=CC[C@]3(CCCN3C(C)=O)C(=O)N[C@@H](CC(=O)O)C(=O)N[C@@H](CC(C)(C)C)C(=O)N1)C(=O)N[C@@H](CC(=O)O)C(=O)N[C@@H](CC(=O)O)C(=O)N[C@@H](C)C(=O)N[C@@H](C)C(=O)N[C@@H](Cc1ccccc1)C(=O)N[C@@H](Cc1ccccc1)C(=O)N2)C(=O)N[C@@H](Cc1csc2ccccc12)C(=O)N[C@@H](CCC(N)=O)C(N)=O (stereo partly drawn) [I-1328, PL3-Asp-Npg-B5-Asp-Asp-Ala-Ala-Phe-Phe-PyrS2-2OMeF-BztA-Gln-NH2] | – | 26 (≈ 51.4 µg/mL)
3 | CC(=O)N1CCC[C@]12CC=CCCCC1(CCCC=CCCCOC(=O)N3CC[C@@](C(=O)N[C@@H](CC4CCCCC4)C(=O)N[C@@H](Cc4csc5ccccc45)C(=O)N[C@@H](CCC(N)=O)C(N)=O)(C3)NC(=O)[C@H](CC(N)=O)NC(=O)[C@H](Cc3ccccc3)NC(=O)[C@H](C)NC(=O)[C@H](C)NC(=O)[C@H](CC(=O)O)NC(=O)[C@H](CC(=O)O)NC1=O)NC(=O)[C@H](CC(C)(C)C)NC(=O)[C@H](CC(=O)O)NC2=O (stereo partly drawn) [I-1329, PL3-Asp-Npg-B5-Asp-Asp-Ala-Ala-Phe-Asn-PyrS2-Cha-BztA-Gln-NH2] | – | 45 (≈ 86.3 µg/mL)
4 | CC(=O)N1CCC[C@]12CC=CCCCC1(CCCC=CCCCOC(=O)N3CC[C@@](C(=O)N[C@@H](CC4CCCCC4)C(=O)N[C@@H](Cc4csc5ccccc45)C(=O)N[C@@H](CCC(N)=O)C(N)=O)(C3)NC(=O)[C@H](Cc3ccccc3)NC(=O)[C@H](Cc3ccccc3)NC(=O)[C@H](C)NC(=O)[C@H](C)NC(=O)[C@H](CC(=O)O)NC(=O)[C@H](CC(=O)O)NC1=O)NC(=O)[C@H](CC(C)(C)C)NC(=O)[C@H](CC(=O)O)NC2=O (stereo partly drawn) [I-1331, PL3-Asp-Npg-B5-Asp-Asp-Ala-Ala-Phe-Phe-PyrS2-Cha-BztA-Gln-NH2] | 10 (≈ 19.5 µg/mL) | –
5 | CC(=O)N1CCC[C@]12CC=CCCCC1(CCCC=CCCCOC(=O)N3CC[C@@](C(=O)N[C@@H](Cc4ccccc4Cl)C(=O)N[C@@H](Cc4csc5ccccc45)C(=O)N[C@@H](CO)C(N)=O)(C3)NC(=O)[C@H](CC(C)C)NC(=O)[C@H](Cc3ccccc3)NC(=O)[C@H](C)NC(=O)[C@H](C)NC(=O)[C@H](Cc3cccc(C(=O)O)c3)NC(=O)[C@H](CC(=O)O)NC1=O)NC(=O)[C@H](CC(C)(C)C)NC(=O)[C@H](CC(=O)O)NC2=O (stereo partly drawn) [I-1333, PL3-Asp-Npg-B5-Asp-3COOHF-Ala-Ala-Phe-Leu-PyrS2-2C1F-BztA-Ser-NH2] | 10 (≈ 19.8 µg/mL) | –
6 | CC(=O)N1CCC[C@]12CC=CCCCC1(CCCC=CCCCOC(=O)N3CC[C@@](C(=O)N[C@@H](Cc4ccccc4Cl)C(=O)N[C@@H](Cc4csc5ccccc45)C(=O)N[C@H](CO)[C@@H](C)O)(C3)NC(=O)[C@H](CC(C)C)NC(=O)[C@H](Cc3ccccc3)NC(=O)[C@H](C)NC(=O)[C@H](C)NC(=O)[C@H](Cc3cccc(C(=O)O)c3)NC(=O)[C@H](CC(=O)O)NC1=O)NC(=O)[C@H](CC(C)(C)C)NC(=O)[C@H](CC(=O)O)NC2=O (stereo partly drawn) [I-1334, PL3-Asp-Npg-B5-Asp-3COOHF-Ala-Ala-Phe-Leu-PyrS2-2C1F-BztA-Thro1] | 10 (≈ 19.8 µg/mL) | –
7 | CC(=O)N1CCC[C@]12CC=CCCCC1(CCCC=CCCCOC(=O)N3CC[C@@](C(=O)N[C@@H](Cc4ccccc4C(F)(F)F)C(=O)N[C@@H](Cc4csc5ccccc45)C(=O)N[C@@H](CCC(N)=O)C(N)=O)(C3)NC(=O)[C@H](CC(C)C)NC(=O)[C@H](Cc3ccccc3)NC(=O)[C@H](C)NC(=O)[C@H](C)NC(=O)[C@H](Cc3cccc(C(=O)O)c3)NC(=O)[C@H](CC(=O)O)NC1=O)NC(=O)[C@H](CC(C)(C)C)NC(=O)[C@H](CC(=O)O)NC2=O (stereo partly drawn) [I-1335, PL3-Asp-Npg-B5-Asp-3COOHF-Ala-Ala-Phe-Leu-PyrS2-2F3MeF-BztA-Gln-NH2] | – | 11 (≈ 22.6 µg/mL)

Other lines, results leading:

Row | Solubility [µM] | solubility at 15 min [µM] | SMILES
8 | 10 (≈ 18.7 µg/mL) | – | CC(=O)N1CCC[C@]12CC=CCCCC1(CCCC=CCCCOC(=O)N3CC[C@@](C(=O)N[C@@H](Cc4ccccc4)C(=O)N[C@@H](Cc4csc5ccccc45)C(=O)N[C@H](C(N)=O)[C@@H](C)O)(C3)NC(=O)[C@H](CC(C)C)NC(=O)[C@H](Cc3ccccc3)NC(=O)[C@H](C)NC(=O)[C@H](C)NC(=O)[C@H]([C@@H](C)O)NC(=O)[C@H](CC(N)=O)NC1=O)NC(=O)[C@H](CC(C)(C)C)NC(=O)[C@H](CC(=O)O)NC2=O (single isomer, unassigned) [I-1300, Ac-PL3-Asp-Npg-B5-Asn-Thr-Ala-Ala-Phe-Leu-PyrS2-Phe-BztA-Thr-NH2]
9 | 10 (≈ 19 µg/mL) | – | CC(=O)N1CCC[C@]12CC=CCCCC1(CCCC=CCCCOC(=O)N3CC[C@@](C(=O)N[C@@H](Cc4ccsc4)C(=O)N[C@@H](Cc4csc5ccccc45)C(=O)N[C@@H](CCC(N)=O)C(N)=O)(C3)NC(=O)[C@H](CC(N)=O)NC(=O)[C@H](Cc3ccccc3)NC(=O)[C@H](C)NC(=O)[C@H](C)NC(=O)[C@H](CC(=O)O)NC(=O)[C@H](CCN)NC1=O)NC(=O)[C@H](CC(C)(C)C)NC(=O)[C@H](CC(=O)O)NC2=O (stereo partly drawn) [I-1216, Ac-PL3-Asp-Npg-B5-Dab-Asp-Ala-Ala-Phe-Asn-PyrS2-3Thi-BztA-Gln-NH2]
10 | – | 15 (≈ 28.5 µg/mL) | CC(=O)N1CCC[C@]12CC=CCCCC1(CCCC=CCCCOC(=O)N3CC[C@@](C(=O)N[C@@H](Cc4ccsc4)C(=O)N[C@@H](Cc4csc5ccccc45)C(=O)N[C@@H](CCC(N)=O)C(N)=O)(C3)NC(=O)[C@H](CC(C)C)NC(=O)[C@H](Cc3ccccc3)NC(=O)[C@H](C)NC(=O)[C@H](C)NC(=O)[C@H](CC(=O)O)NC(=O)[C@H](CCN)NC1=O)NC(=O)[C@H](CC(C)(C)C)NC(=O)[C@H](CC(=O)O)NC2=O (stereo partly drawn) [I-1217, Ac-PL3-Asp-Npg-B5-Dab-Asp-Ala-Ala-Phe-Leu-PyrS2-3Thi-BztA-Gln-NH2]
11 | 10 (≈ 18.9 µg/mL) | – | CC(=O)N1CCC[C@]12CC=CCCCC1(CCCC=CCCCOC(=O)N3CC[C@@](C(=O)N[C@@H](Cc4ccccc4)C(=O)N[C@@H](Cc4cccc5ccccc45)C(=O)N[C@@H](CCC(N)=O)C(N)=O)(C3)NC(=O)[C@H](CC(C)C)NC(=O)[C@H](Cc3ccccc3)NC(=O)[C@H](C)NC(=O)[C@H](C)NC(=O)[C@H]([C@@H](C)O)NC(=O)[C@H](CC(=O)O)NC1=O)NC(=O)[C@H](CC(C)(C)C)NC(=O)[C@H](CC(N)=O)NC2=O (stereo partly drawn) [I-1290, Ac-PL3-Asn-Npg-B5-Asp-Thr-Ala-Ala-Phe-Leu-PyrS2-Phe-1NapA-Gln-NH2]
12 | 10 (≈ 19 µg/mL) | – | CC(=O)N1CCC[C@]12CC=CCCCC1(CCCC=CCCCOC(=O)N3CC[C@@](C(=O)N[C@@H](Cc4ccccc4)C(=O)N[C@@H](Cc4csc5ccccc45)C(=O)N[C@@H](CCC(N)=O)C(N)=O)(C3)NC(=O)[C@H](CC(C)C)NC(=O)[C@H](Cc3ccccc3)NC(=O)[C@H](C)NC(=O)[C@H](C)NC(=O)[C@H]([C@@H](C)O)NC(=O)[C@H](CC(N)=O)NC1=O)NC(=O)[C@H](CC(C)(C)C)NC(=O)[C@H](CC(=O)O)NC2=O (stereo partly drawn) [I-1294, Ac-PL3-Asp-Npg-B5-Asn-Thr-Ala-Ala-Phe-Leu-PyrS2-Phe-BztA-Gln-NH2]
13 | 10 (≈ 18.9 µg/mL) | – | CC(=O)N1CCC[C@]12CC=CCCCC1(CCCC=CCCCOC(=O)N3CC[C@@](C(=O)N[C@@H](Cc4ccccc4)C(=O)N[C@@H](Cc4cccc5ccccc45)C(=O)N[C@@H](CCC(N)=O)C(N)=O)(C3)NC(=O)[C@H](CC(C)C)NC(=O)[C@H](Cc3ccccc3)NC(=O)[C@H](C)NC(=O)[C@H](C)NC(=O)[C@H]([C@@H](C)O)NC(=O)[C@H](CC(N)=O)NC1=O)NC(=O)[C@H](CC(C)(C)C)NC(=O)[C@H](CC(=O)O)NC2=O (stereo partly drawn) [I-1298, Ac-PL3-Asp-Npg-B5-Asn-Thr-Ala-Ala-Phe-Leu-PyrS2-Phe-1NapA-Gln-NH2]
14 | – | 25 (≈ 49.8 µg/mL) | CC(=O)N1CCC[C@]12CC=CCCCC1(CCCC=CCCCOC(=O)N3CC[C@@](C(=O)N[C@@H](Cc4ccccc4Br)C(=O)N[C@@H](Cc4csc5ccccc45)C(=O)N[C@@H](CCC(N)=O)C(N)=O)(C3)NC(=O)[C@H](CC(C)C)NC(=O)[C@H](Cc3ccccc3)NC(=O)[C@H](C)NC(=O)[C@H](C)NC(=O)[C@H](CC(=O)O)NC(=O)[C@H](CC(=O)O)NC1=O)NC(=O)[C@H](CC(C)(C)C)NC(=O)[C@H](CC(=O)O)NC2=O (stereo partly drawn) [I-1324, PL3-Asp-Npg-B5-Asp-Asp-Ala-Ala-Phe-Leu-PyrS2-2BrF-BztA-Gln-NH2]
15 | – | 39 (≈ 75.7 µg/mL) | COc1ccccc1C[C@H](NC(=O)[C@]12CCN(C1)C(=O)OCCCC=CCCCC1(CCCC=CC[C@]3(CCCN3C(C)=O)C(=O)N[C@@H](CC(=O)O)C(=O)N[C@@H](CC(C)(C)C)C(=O)N1)C(=O)N[C@@H](CC(=O)O)C(=O)N[C@@H](CC(=O)O)C(=O)N[C@@H](C)C(=O)N[C@@H](C)C(=O)N[C@@H](Cc1ccccc1)C(=O)N[C@@H](CC(C)C)C(=O)N2)C(=O)N[C@@H](Cc1csc2ccccc12)C(=O)N[C@@H](CCC(N)=O)C(N)=O (stereo partly drawn) [I-1327, PL3-Asp-Npg-B5-Asp-Asp-Ala-Ala-Phe-Leu-PyrS2-2OMeF-BztA-Gln-NH2]
16 | – | 13 (≈ 26.3 µg/mL) | CC(=O)N1CCC[C@]12CC=CCCCC1(CCCC=CCCCOC(=O)N3CC[C@@](C(=O)N[C@@H](Cc4ccccc4Cl)C(=O)N[C@@H](Cc4csc5ccccc45)C(=O)N[C@@H](CCC(N)=O)C(N)=O)(C3)NC(=O)[C@H](CC(C)C)NC(=O)[C@H](Cc3ccccc3)NC(=O)[C@H](C)NC(=O)[C@H](C)NC(=O)[C@H](Cc3cccc(C(=O)O)c3)NC(=O)[C@H](CC(=O)O)NC1=O)NC(=O)[C@H](CC(C)(C)C)NC(=O)[C@H](CC(=O)O)NC2=O (stereo partly drawn) [I-1332, PL3-Asp-Npg-B5-Asp-3COOHF-Ala-Ala-Phe-Leu-PyrS2-2C1F-BztA-Gln-NH2]
